pKi: −log10 of the molar value.
Experiments:
[1] = target: C-C chemokine receptor type 1 (Homo sapiens, UniProt P32246); experiment: Ca flux
[2] = tested on: Tyrosine-protein kinase ABL1 (Homo sapiens), P00519 [M351T]; details: Compound concentration 1000.0 nM
[3] = tested on: Epidermal growth factor receptor (Homo sapiens), P00533 [UNDEFINED MUTATION]; details: Compound concentration 1000.0 nM
[4] = target: Alpha-1B adrenergic receptor (Homo sapiens) (UniProt P35368); details: Compound concentration 10.0 uM
[5] = target: Leukocyte tyrosine kinase receptor (Homo sapiens) (UniProt P29376); details: Compound concentration 1000.0 nM
[6] = target: Prostaglandin E2 receptor EP4 subtype (Homo sapiens) (UniProt P35408); experiment: PEP4_HU Eurofins-Panlabs selectivity data (BI); details: Compound concentration 10.0 uM
[7] = target: Beta-1 adrenergic receptor (Homo sapiens, UniProt P08588); experiment: GPCRScan assay: inhibition of Beta1; set-up: radioligand conc. used [nm] 0.1 – 0.2, parental cells CHO Flp-In
[8] = target: Glutamate receptor ionotropic, NMDA 1 (Rattus norvegicus) (UniProt P35439); experiment: NMDAGLSI/RA Eurofins-Panlabs selectivity data (BI); details: Compound concentration 10.0 uM
[9] = target: T1, Alpha-2A adrenergic receptor (Homo sapiens) (UniProt P08913); experiment: ALPHA2A/H Eurofins-Panlabs selectivity data (BI); details: Compound concentration 10.0 uM
T1 sequence (whole entry): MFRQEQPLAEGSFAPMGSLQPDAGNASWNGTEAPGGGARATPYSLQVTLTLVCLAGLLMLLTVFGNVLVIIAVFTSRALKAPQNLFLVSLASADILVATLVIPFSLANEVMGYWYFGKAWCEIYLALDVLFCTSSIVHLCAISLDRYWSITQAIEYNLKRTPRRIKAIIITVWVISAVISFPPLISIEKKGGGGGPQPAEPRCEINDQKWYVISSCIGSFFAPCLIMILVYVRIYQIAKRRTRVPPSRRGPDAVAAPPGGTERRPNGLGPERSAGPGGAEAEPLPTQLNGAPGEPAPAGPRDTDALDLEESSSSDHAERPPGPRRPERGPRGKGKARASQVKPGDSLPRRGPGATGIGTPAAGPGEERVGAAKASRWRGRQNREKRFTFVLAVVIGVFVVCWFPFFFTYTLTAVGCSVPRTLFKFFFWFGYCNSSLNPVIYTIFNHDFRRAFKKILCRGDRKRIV

[10] = target: ATP-sensitive inward rectifier potassium channel 1 isoform X1 (Mesocricetus auratus) (UniProt A0A1U8CU73); experiment: K+/KATP/HA Eurofins-Panlabs selectivity data (BI); details: Compound concentration 10.0 uM
[11] = target: Muscarinic acetylcholine receptor M1 (Homo sapiens) (UniProt P11229); experiment: M1/HU Eurofins-Panlabs selectivity data (BI); details: Compound concentration 10.0 uM
Sequence of Muscarinic acetylcholine receptor M1 (Homo sapiens) (P11229 whole entry): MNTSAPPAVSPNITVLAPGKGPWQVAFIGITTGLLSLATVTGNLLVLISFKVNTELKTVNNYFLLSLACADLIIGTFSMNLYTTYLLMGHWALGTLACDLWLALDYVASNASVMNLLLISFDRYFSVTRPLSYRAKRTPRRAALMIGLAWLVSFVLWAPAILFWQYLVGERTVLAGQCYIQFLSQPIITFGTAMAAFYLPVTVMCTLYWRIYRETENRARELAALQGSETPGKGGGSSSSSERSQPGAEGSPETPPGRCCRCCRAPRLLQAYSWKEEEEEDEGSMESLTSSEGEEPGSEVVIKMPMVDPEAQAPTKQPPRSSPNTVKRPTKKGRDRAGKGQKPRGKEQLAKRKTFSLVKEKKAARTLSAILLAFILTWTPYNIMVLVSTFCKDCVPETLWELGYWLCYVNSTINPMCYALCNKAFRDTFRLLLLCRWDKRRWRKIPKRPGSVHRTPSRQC

[12] = target: Acetylcholine receptor subunit alpha (Homo sapiens) (UniProt P02708); experiment: NACH/H Eurofins-Panlabs selectivity data (BI); details: Compound concentration 10.0 uM
[13] = target: Protein kinase C alpha type (Mus musculus) (UniProt P20444); experiment: PHORBOLE/M Eurofins-Panlabs selectivity data (BI); details: Compound concentration 10.0 uM
[14] = target: Interleukin-1 receptor type 1 (Mus musculus) (UniProt P13504); experiment: IL-1 Eurofins-Panlabs selectivity data (BI); details: Compound concentration 10.0 uM
[15] = target: Sodium channel regulatory subunit beta-1 (Rattus norvegicus) (UniProt Q00954); experiment: NA+/SITE2/RA Eurofins-Panlabs selectivity data (BI); details: Compound concentration 10.0 uM
[16] = target: Voltage-dependent L-type calcium channel subunit alpha-1C (diltiazem site) (Rattus norvegicus, UniProt P22002); experiment: CA+/DILSI/RA Eurofins-Panlabs selectivity data (BI); details: compound concentration 10 uM, read-out: % Ctrl
Sequence of Voltage-dependent L-type calcium channel subunit alpha-1C (diltiazem site) (P22002 whole entry): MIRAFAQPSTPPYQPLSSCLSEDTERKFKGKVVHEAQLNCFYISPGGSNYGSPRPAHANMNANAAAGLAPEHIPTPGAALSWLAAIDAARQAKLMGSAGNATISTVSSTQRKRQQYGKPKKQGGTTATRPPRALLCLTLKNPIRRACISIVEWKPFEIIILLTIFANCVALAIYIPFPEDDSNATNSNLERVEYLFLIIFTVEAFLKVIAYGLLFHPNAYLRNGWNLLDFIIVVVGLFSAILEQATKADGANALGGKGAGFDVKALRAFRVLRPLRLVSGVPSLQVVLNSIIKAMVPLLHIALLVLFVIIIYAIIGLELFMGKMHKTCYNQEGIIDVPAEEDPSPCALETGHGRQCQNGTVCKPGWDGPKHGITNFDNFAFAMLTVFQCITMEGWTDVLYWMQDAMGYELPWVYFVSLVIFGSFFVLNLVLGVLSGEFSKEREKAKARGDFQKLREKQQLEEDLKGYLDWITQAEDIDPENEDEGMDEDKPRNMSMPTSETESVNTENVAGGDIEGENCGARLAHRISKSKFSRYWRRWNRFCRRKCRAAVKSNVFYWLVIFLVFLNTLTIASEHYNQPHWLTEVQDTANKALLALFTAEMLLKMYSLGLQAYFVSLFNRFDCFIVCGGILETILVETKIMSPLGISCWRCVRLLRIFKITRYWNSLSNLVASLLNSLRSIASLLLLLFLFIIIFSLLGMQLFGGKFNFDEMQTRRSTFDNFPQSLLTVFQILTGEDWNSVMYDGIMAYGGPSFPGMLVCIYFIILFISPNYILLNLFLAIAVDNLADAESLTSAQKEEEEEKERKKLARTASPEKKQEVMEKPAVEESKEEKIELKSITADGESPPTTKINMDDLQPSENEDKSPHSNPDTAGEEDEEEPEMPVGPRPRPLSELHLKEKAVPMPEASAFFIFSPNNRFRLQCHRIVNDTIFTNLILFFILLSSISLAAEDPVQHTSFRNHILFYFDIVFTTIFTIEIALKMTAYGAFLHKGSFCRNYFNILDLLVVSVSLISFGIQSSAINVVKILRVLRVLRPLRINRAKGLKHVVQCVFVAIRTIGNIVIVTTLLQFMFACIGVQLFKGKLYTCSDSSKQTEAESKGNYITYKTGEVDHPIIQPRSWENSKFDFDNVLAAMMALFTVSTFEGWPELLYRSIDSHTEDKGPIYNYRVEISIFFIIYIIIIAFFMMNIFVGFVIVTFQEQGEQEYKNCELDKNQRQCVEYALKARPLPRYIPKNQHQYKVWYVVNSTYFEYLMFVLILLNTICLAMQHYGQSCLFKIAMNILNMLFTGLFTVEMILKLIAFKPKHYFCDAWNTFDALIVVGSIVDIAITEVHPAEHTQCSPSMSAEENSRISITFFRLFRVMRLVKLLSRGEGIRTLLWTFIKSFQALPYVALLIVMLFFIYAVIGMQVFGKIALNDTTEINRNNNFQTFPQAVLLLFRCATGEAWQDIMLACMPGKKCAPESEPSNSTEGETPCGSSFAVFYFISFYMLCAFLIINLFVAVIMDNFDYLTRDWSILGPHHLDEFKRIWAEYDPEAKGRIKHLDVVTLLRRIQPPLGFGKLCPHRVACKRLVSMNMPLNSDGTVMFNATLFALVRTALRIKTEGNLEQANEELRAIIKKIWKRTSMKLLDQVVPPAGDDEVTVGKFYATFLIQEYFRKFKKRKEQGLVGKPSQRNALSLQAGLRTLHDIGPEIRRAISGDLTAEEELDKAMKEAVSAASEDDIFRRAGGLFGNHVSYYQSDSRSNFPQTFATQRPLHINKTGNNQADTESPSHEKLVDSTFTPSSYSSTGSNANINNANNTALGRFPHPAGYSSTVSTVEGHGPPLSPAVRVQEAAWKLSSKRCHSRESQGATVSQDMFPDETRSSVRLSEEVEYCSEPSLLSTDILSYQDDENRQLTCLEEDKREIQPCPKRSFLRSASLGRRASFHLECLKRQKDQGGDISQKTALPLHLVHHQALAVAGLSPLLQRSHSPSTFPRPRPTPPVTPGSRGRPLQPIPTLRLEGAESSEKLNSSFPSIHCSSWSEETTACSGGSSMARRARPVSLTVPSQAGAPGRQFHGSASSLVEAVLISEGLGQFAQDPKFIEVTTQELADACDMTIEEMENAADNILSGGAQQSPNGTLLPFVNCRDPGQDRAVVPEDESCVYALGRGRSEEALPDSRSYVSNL

[17] = target: Histamine H1 receptor (Homo sapiens) (UniProt P35367); experiment: H1/H Eurofins-Panlabs selectivity data (BI); details: Compound concentration 10.0 uM
[18] = target: Mu-type opioid receptor (Homo sapiens) (UniProt P35372); experiment: MU/HU Eurofins-Panlabs selectivity data (BI); details: Compound concentration 10.0 uM
[19] = target: Histamine H2 receptor (Homo sapiens) (UniProt P25021); experiment: H2/H Eurofins-Panlabs selectivity data (BI); details: Compound concentration 10.0 uM
Sequence of Histamine H2 receptor (Homo sapiens) (P25021 whole entry): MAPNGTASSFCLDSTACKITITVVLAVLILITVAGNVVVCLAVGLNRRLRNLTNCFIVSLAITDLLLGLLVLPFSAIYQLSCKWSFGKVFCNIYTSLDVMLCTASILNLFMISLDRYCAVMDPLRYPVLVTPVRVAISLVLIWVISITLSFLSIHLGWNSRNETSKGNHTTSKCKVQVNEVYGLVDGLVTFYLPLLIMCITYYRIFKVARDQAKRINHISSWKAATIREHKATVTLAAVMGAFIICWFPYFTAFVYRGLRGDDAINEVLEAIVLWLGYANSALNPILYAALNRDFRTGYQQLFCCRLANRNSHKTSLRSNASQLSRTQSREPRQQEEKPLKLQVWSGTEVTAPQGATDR

[20] = target: Sodium-dependent noradrenaline transporter (Homo sapiens) (UniProt P23975); experiment: NETRANS/H Eurofins-Panlabs selectivity data (BI); details: Compound concentration 10.0 uM
[21] = target: B2 bradykinin receptor (Homo sapiens) (UniProt P30411); experiment: B2/H Eurofins-Panlabs selectivity data (BI); details: filed as antagonist, Compound concentration 10.0 uM
[22] = target: Adenosine receptor A2a (Homo sapiens) (UniProt P29274); experiment: A2A/HU Eurofins-Panlabs selectivity data (BI); details: Compound concentration 10.0 uM
Sequence of Adenosine receptor A2a (Homo sapiens) (P29274 whole entry): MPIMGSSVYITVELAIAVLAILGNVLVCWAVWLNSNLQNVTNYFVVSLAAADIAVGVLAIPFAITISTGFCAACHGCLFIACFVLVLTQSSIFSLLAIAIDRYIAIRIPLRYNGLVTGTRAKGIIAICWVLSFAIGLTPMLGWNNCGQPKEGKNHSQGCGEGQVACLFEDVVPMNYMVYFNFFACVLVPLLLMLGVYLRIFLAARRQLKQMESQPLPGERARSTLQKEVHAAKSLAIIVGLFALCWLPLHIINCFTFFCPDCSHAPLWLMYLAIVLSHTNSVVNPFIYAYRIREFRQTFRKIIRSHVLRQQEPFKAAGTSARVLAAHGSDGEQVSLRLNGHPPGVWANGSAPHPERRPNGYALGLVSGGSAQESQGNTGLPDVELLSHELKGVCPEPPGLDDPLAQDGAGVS

[23] = target: 3',5'-cyclic-AMP phosphodiesterase 4A (Rattus norvegicus) (UniProt P54748); experiment: ROLIPRAM/R Eurofins-Panlabs selectivity data (BI); details: Compound concentration 10.0 uM
Sequence of 3',5'-cyclic-AMP phosphodiesterase 4A (Rattus norvegicus) (P54748 whole entry): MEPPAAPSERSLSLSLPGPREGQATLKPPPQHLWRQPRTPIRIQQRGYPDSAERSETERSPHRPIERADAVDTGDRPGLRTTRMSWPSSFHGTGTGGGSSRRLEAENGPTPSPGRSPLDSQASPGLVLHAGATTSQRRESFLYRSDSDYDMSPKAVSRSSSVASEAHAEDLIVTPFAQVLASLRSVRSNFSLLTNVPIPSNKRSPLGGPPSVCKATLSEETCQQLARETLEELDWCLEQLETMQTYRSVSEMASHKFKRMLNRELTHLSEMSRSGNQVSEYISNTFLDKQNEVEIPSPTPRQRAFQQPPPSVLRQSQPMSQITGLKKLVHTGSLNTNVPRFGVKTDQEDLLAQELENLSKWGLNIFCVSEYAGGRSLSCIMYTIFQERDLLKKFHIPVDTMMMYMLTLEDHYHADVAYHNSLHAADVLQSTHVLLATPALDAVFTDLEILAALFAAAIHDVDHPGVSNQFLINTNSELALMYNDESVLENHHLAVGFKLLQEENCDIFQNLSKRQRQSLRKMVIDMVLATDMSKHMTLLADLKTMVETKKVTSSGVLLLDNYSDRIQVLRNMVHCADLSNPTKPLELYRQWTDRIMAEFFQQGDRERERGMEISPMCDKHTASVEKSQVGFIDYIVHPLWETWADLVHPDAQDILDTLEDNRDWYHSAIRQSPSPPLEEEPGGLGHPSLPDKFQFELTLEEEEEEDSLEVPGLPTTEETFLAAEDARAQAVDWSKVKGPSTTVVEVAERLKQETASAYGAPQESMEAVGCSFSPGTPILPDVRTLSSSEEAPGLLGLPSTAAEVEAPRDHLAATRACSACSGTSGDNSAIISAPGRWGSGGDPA

[24] = target: Estrogen receptor (Homo sapiens) (UniProt P03372); experiment: ERALPHA/H Eurofins-Panlabs selectivity data (BI); details: Compound concentration 10.0 uM
[25] = target: T2, D(4) dopamine receptor (Homo sapiens) (UniProt P21917); experiment: D4.2/H Eurofins-Panlabs selectivity data (BI); details: Compound concentration 10.0 uM
T2 sequence (whole entry): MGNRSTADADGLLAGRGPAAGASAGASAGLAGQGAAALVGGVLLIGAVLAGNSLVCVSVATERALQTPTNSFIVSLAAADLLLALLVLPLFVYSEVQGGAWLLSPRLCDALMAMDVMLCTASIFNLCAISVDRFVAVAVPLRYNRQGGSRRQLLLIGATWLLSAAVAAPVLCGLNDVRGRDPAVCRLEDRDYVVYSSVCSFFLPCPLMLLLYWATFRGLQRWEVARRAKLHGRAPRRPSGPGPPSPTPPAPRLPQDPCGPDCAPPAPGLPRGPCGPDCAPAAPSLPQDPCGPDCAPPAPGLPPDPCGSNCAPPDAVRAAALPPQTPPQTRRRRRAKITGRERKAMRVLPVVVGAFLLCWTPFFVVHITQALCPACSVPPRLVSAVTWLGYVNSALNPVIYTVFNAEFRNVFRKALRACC

[26] = target: Substance-P receptor (Homo sapiens) (UniProt P25103); experiment: NK1/HU Eurofins-Panlabs selectivity data (BI); details: Compound concentration 10.0 uM
Sequence of Substance-P receptor (Homo sapiens) (P25103 whole entry): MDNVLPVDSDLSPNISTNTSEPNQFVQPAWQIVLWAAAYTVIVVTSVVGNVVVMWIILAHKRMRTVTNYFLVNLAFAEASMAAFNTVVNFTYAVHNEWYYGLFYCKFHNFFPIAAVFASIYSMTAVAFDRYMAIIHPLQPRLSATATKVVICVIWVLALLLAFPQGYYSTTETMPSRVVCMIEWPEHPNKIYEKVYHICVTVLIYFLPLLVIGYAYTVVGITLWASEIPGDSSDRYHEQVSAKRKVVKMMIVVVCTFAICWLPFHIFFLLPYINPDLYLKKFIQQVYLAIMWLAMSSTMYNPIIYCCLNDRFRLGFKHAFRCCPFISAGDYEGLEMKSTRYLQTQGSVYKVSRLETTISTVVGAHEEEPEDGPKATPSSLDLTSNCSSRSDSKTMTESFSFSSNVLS

[27] = target: Cysteinyl leukotriene receptor 1 (Homo sapiens) (UniProt Q9Y271); experiment: CYSLT1_HS Eurofins-Panlabs selectivity data (BI); details: Compound concentration 10.0 uM
Sequence of Cysteinyl leukotriene receptor 1 (Homo sapiens) (Q9Y271 whole entry): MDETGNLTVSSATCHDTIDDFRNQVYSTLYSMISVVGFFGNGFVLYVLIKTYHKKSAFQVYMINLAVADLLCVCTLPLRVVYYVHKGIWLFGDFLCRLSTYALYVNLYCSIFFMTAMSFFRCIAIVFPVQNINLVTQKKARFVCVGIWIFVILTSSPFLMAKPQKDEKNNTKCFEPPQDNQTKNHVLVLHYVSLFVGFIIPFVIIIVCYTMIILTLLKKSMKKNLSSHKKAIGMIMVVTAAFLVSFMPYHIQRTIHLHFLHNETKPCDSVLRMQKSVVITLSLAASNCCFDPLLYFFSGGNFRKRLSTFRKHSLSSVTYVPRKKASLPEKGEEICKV

[28] = target: Neuropeptide Y receptor type 2 (Homo sapiens) (UniProt P49146); experiment: Y2/HU Eurofins-Panlabs selectivity data (BI); details: Compound concentration 10.0 uM
[29] = target: Adenosine receptor A3 (Homo sapiens) (UniProt P0DMS8); experiment: A3/H Eurofins-Panlabs selectivity data (BI); details: Compound concentration 10.0 uM
[30] = target: Beta-2 adrenergic receptor (Homo sapiens) (UniProt P07550); experiment: BETA2/HU Eurofins-Panlabs selectivity data (BI); details: Compound concentration 10.0 uM
[31] = target: Sodium-dependent dopamine transporter (Homo sapiens) (UniProt Q01959); experiment: DATRANS/H Eurofins-Panlabs selectivity data (BI); details: Compound concentration 10.0 uM
[32] = target: P2Y purinoceptor 1 (Rattus norvegicus) (UniProt P49651); experiment: P2Y/RAT Eurofins-Panlabs selectivity data (BI); details: Compound concentration 10.0 uM
[33] = target: Muscarinic acetylcholine receptor M2 (Homo sapiens) (UniProt P08172); experiment: M2/HU Eurofins-Panlabs selectivity data (BI); details: Compound concentration 10.0 uM
[34] = target: Epidermal growth factor receptor (Homo sapiens) (UniProt P00533); experiment: EGF/HU Eurofins-Panlabs selectivity data (BI); details: Compound concentration 10.0 uM

**Q.** For CS(=O)(=O)NCC[C@H](NC(=O)c1cncc2c1cnn2-c1ccc(F)cc1)c1ccnc(S(C)(=O)=O)c1 [BI 9307], which IC50 [1] is on record?
**A.** Its IC50 is > 3000 nM (not active).

**Q.** And the residual activity [2]?
**A.** The residual activity was 100%.

**Q.** And the residual activity [3]?
**A.** The residual activity was 71%.

**Q.** What about the inhibition [4] of the same compound?
**A.** The inhibition was 15.8%.

**Q.** And the residual activity [5]?
**A.** Its residual activity is 100%.

**Q.** For CS(=O)(=O)c1cc(C2(NC(=O)c3cncc4c3cnn4-c3ccc(F)cc3)CC2)ccn1 [BI 639667], which residual activity [6] is on record?
**A.** Its residual activity is 97%.

**Q.** And the pKi [7]?
**A.** Its pKi is 5.72.

**Q.** What about the residual activity [8] of the same compound?
**A.** The residual activity was 96%.

**Q.** And the residual activity [9]?
**A.** Its residual activity is 79%.

**Q.** And the residual activity [10]?
**A.** The residual activity was 100%.

**Q.** What about the residual activity [11] of the same compound?
**A.** Its residual activity is 99%.

**Q.** And the residual activity [12]?
**A.** Its residual activity is 91%.

**Q.** And the residual activity [13]?
**A.** The residual activity was 93%.

**Q.** And the residual activity [14]?
**A.** Its residual activity is 90%.

**Q.** What about the residual activity [15] of the same compound?
**A.** Its residual activity is 81%.

**Q.** And the activity at 10 µM [16]?
**A.** The activity at 10 µM was 58% (not active).

**Q.** What about the residual activity [17] of the same compound?
**A.** Its residual activity is 100%.

**Q.** What about the residual activity [18] of the same compound?
**A.** Its residual activity is 86%.

**Q.** What about the residual activity [19] of the same compound?
**A.** Its residual activity is 89%.

**Q.** What about the residual activity [20] of the same compound?
**A.** Its residual activity is 82%.

**Q.** And the residual activity [21]?
**A.** Its residual activity is 100%.

**Q.** And the residual activity [22]?
**A.** The residual activity was 31%.

**Q.** What about the residual activity [23] of the same compound?
**A.** The residual activity was 81%.

**Q.** And the residual activity [24]?
**A.** The residual activity was 100%.

**Q.** And the residual activity [25]?
**A.** Its residual activity is 94%.

**Q.** And the residual activity [26]?
**A.** The residual activity was 95%.

**Q.** And the residual activity [27]?
**A.** The residual activity was 87%.

**Q.** And the residual activity [28]?
**A.** The residual activity was 98%.

**Q.** And the residual activity [29]?
**A.** Its residual activity is 81%.

**Q.** What about the residual activity [30] of the same compound?
**A.** The residual activity was 96%.

**Q.** And the residual activity [31]?
**A.** The residual activity was 28%.

**Q.** What about the residual activity [32] of the same compound?
**A.** Its residual activity is 88%.

**Q.** And the residual activity [33]?
**A.** Its residual activity is 99%.

**Q.** What about the residual activity [34] of the same compound?
**A.** Its residual activity is 55%.
